Data as given in PMC2680961, “Homologous desensitization of signalling by the alpha (α) isoform of the human thromboxane A2 receptor: A specific role for nitric oxide signalling” (Biochimica et Biophysica Acta, 2007).

Assays:
[1] = parameters: method as in PMID 10508233; conditions: rapidly hydrolysed to inactive metabolite TXB2; estimated; cited from earlier work
eNOS = eNOS phosphorylation (anti-phospho eNOS^Ser1177 western blot); type: cell-based, human; conditions: HEK.TPα cells (also HEK 293, HEK.TPβ); 1 μM U46619 or 10 U/ml Thrombin, 5 min, 37 °C
Method: In order to assess eNOS phosphorylation, HEK.TPα, HEK.TPβ or HEK 293 cells (2 × 10^6 cells/10-cm dish) were plated some 48 h prior to experimentation. Cells were incubated with vehicle, 1 μM U46619 or 10 U/ml Thrombin for 5 min at 37 °C and aliquots of whole cell protein (100 μg/lane) were analysed by SDS-PAGE/western blot. Blots were initially screened using the anti-phospho eNOS^1177 as per supplier's instructions (Cell Signalling Technology) and, following stripping, were subsequently re-screened using the anti-eNOS (Transduction Laboratories).

Compound | half-life [1] [s] | eNOS phosphorylation at Ser^1177 (eNOS)
CCCCC[C@H](O)/C=C/[C@H]1O[C@H]2C[C@H](O2)[C@@H]1C/C=C\CCCC(=O)O [TXA2] | 30 | –
thrombin | – | readily lead to eNOS phosphorylation
